Holding throughout (assay): DTP human tumour cell line panel, 48 h
For assay [1], the system named is COLO 205 colon.
For assay [2], the system named is DU-145 prostate.
The subject of assay [3] is HCT-15 colon.
Assay [4] has as its system HOP-92 NSCLC.
Assay [5] has as its system HT29 colon.
The test system of assay [6] is KM12 colon.
The test system of assay [7] is NCI-H23 lung.
Assay [8] relates to NCI-H460 lung.
Assay [9] has as its system PC-3 prostate.
Assay [10] relates to SK-MEL-28 melanoma.
For assay [11], the system named is SK-MEL-5 melanoma.
Assay [12] has as its system T-47D breast.
In assay [13] the test system is SK-MEL-2 melanoma.
The subject of assay [14] is UACC-257 melanoma.

Several values for one entry are separate records, joined by “and”; a condition that tells them apart may be missing. Equal values may be shown once.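 Interpolation was linear, between the two tested concentrations surrounding the appropriate level; five concentrations were tested over 48 hours in 96-well plates. GI50 = concentration required for 50% inhibition of growth. At the TGI there is no net growth.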

Regarding `N#Cc1c(-c2ccccc2)cc(-c2ccccc2)n(C2OC(CO)C(O)C(O)C2O)c1=S` (centres undefined), the GI50 in [1] was 17.9 µM and 43 µM; in assay [2] it was 42.2 µM and > 100 µM; in assay [3], 31 µM and 80.8 µM; in assay [4], 46.6 µM and > 100 µM; in [10], 18.8 µM and 53.5 µM; in assay [12], 6.51 µM and 29.1 µM. For the same compound, the TGI in assay [1] is 45.9 µM and > 100 µM; in assay [2] it was > 100 µM; in [3], > 100 µM; in [4], > 100 µM; in assay [5] it was 56 µM and > 100 µM; in assay [6], > 100 µM. In addition, the TGI in [7] is 58.9 µM and 89.7 µM; in assay [8], 82.8 µM and > 100 µM; in assay [9], > 100 µM; in [10], 47.4 µM and > 100 µM; in assay [11], 29.1 µM and > 100 µM; in [12] it was 34.5 µM and > 100 µM.
As to `O=C(O)c1nc2cc(C(F)(F)F)ccc2nc1Nc1ccc(F)cc1`, the TGI was 37.1 µM in assay [1]; 39.3 µM in assay [4]; > 100 µM in assay [5]; 30.3 µM in assay [6]; 38.2 µM in assay [7]; 31.6 µM in assay [9]. In addition, the total growth inhibition concentration (TGI) was 26.5 µM in assay [13]; > 100 µM in [10]; 48.1 µM in assay [11]; > 100 µM in [12]; 60.2 µM in assay [14].
As for `O=C1/C(=C\c2ccc(O)cc2)CCC/C1=C/c1ccc(Cl)c(Cl)c1`, the total growth inhibition concentration (TGI) was found to be 3.67 µM in assay [1]; 9.8 µM in assay [2]; 9.75 µM in assay [3]; 28.9 µM in [4]; 3.54 µM in assay [5]; 3.77 µM in assay [6]. Also, the TGI turned out to be 10.1 µM in assay [7]; 12.7 µM in [9]; 36.9 µM in assay [13]; 13.9 µM in [10]; 19.6 µM in assay [11]; 33.3 µM in assay [12]. This compound showed a total growth inhibition concentration (TGI) in assay [14] of 15.7 µM.
Consider `C1=NCCN2CCN(CCN=Cc3ccc(cc3)OCc3cccc(n3)COc3ccc1cc3)CC2`, for which the total growth inhibition concentration (TGI) in assay [1], in [2], in assay [3], in assay [4], in assay [5] and in assay [6] was > 50 µM in each case. The concentration for total growth inhibition (TGI) in [7], in assay [8], in assay [9], in assay [13], in assay [10] and in assay [14] was > 50 µM each time.
Regarding `COC(=O)c1ccc(C)cc1CC1Cc2cc(C)ccc2C1=O` (centres undefined), the TGI in assay [1], in assay [3], in assay [5], in assay [6], in assay [7] and in assay [8] was > 100 µM each time. Besides, the total growth inhibition concentration (TGI) in assay [9], in [13], in assay [10], in assay [12] and in assay [14] was > 100 µM in each case.
Consider `O=C1/C(=C/c2cccc(F)c2)CCCc2ccccc21`, for which the TGI in assay [1] turned out to be 36.4 µM; in [2] it was 30.6 µM; in [3], 29.3 µM; in assay [4] it was 29.2 µM; in [5], 25.9 µM; in assay [6], 24.4 µM. In addition, the TGI worked out at 42.6 µM in [7]; 31.1 µM in assay [8]; 29.1 µM in [9]; 29.8 µM in assay [13]; 30.2 µM in assay [10]; 30.6 µM in [14].
Consider `COC1=C(OC)C(=O)C(Cc2c(Cl)nc3sc(C)cn23)=C(C)C1=O`, for which the TGI in assay [1] was determined as 34.7 µM; in assay [2], 61 µM; in assay [3] it was 67.9 µM; in [5], 36.3 µM; in assay [6] it was 27.8 µM; in assay [7] it was 42.6 µM. Further, the TGI is 37.8 µM in assay [8]; 34.9 µM in [9]; 76.9 µM in assay [13]; 32.2 µM in assay [10]; 23.9 µM in [11]; > 100 µM in [12]. This compound also gave a TGI in assay [14] of 22.8 µM.
Turning to `C=CCNC(=O)NC(=O)CSC1=NNC2(C(=O)N1)c1ccccc1-c1ccccc12`, the TGI in assay [1], in [2], in assay [3], in [4], in [5] and in assay [6] was > 10 µM each time. Moreover, the total growth inhibition concentration (TGI) in assay [7], in assay [8], in assay [9], in [10], in assay [11] and in [12] was > 10 µM throughout. The total growth inhibition concentration (TGI) in [14] was > 10 µM.
On to `C=CCNC1=C2C[C@@H](C)C[C@@H](OC)[C@H](OC(=O)CCN)[C@H](C)/C=C(\C)[C@@H](OC(N)=O)[C@H](OC)/C=C\C=C(/C)C(=O)NC(=CC1=O)C2=O`, for which the TGI in assay [1] was 10.1 µM; in assay [2] it was 16 µM; in assay [3], 23.7 µM; in assay [4], 16.9 µM; in assay [5], 18.7 µM; in assay [6] it was 11.2 µM. The TGI came out at 13 µM in assay [7]; 15.2 µM in assay [8]; 7.12 µM in [13]; 44.2 µM in assay [10]; 17.4 µM in assay [11]; 15.5 µM in [12]. In addition, the concentration for total growth inhibition (TGI) in assay [14] is 10.3 µM.
Take `O=C1c2cc(Cl)ccc2-n2cnnc2C2CSCN12` (centres undefined): the TGI in assay [1], in [2], in assay [3], in assay [5], in [6] and in [8] was > 100 µM in each case. Further, the TGI in assay [9], in assay [13], in assay [10], in assay [11], in assay [12] and in [14] was > 100 µM each time.
Turning to `C=CCN1C(=O)C=C(c2ccccc2)n2ncc3cccc1c32`, the concentration for total growth inhibition (TGI) in assay [1], in [2], in assay [3], in assay [4], in assay [5] and in assay [6] was > 100 µM throughout. In addition, the TGI in assay [7], in [9], in assay [13], in assay [10], in assay [11] and in assay [12] was > 100 µM each time. The TGI in assay [14] is > 100 µM.
For the compound `CCOC(=O)P(=O)(O)c1ccc(N(C)Cc2ccccc2)cc1`, the total growth inhibition concentration (TGI) in assay [1], in [2], in [3], in assay [4], in [5] and in [6] was > 100 µM each time. Moreover, the TGI in [7], in assay [9], in assay [13], in assay [10], in assay [11] and in assay [12] was > 100 µM in each case. Further, the TGI in assay [14] was > 100 µM.
On to `CCc1c2c([nH]c(=S)c1C#N)CCC2`, for which the TGI in assay [1], in [2], in assay [3], in assay [4], in assay [5] and in assay [6] was > 100 µM each time. Moreover, the concentration for total growth inhibition (TGI) in [7], in assay [8], in assay [9], in [13], in assay [10] and in assay [11] was > 100 µM each time. Further, the TGI in [14] was > 100 µM.
As for `COc1ccc2[nH]cc(CCNC(=O)[C@H](Cc3ccccc3)NC(=O)[C@@H](NCC(F)(F)F)C(C)C)c2c1`, the TGI was determined as 32.3 µM in assay [1]; 37.7 µM in assay [2]; 42.2 µM in [3]; 28.4 µM in assay [4]; 31.5 µM in assay [5]; 49.7 µM in assay [6]. Moreover, the TGI in assay [7] stood at 64.6 µM; in assay [8], 46.3 µM; in assay [9] it was 40.9 µM; in [13], 38.3 µM; in [10], 31.8 µM; in assay [14], 37.8 µM.
`COc1cc(O)c2c(=O)cc(-c3ccc(O)cc3O)oc2c1CC=C(C)C`: the concentration for total growth inhibition (TGI) is 26.7 µM in assay [1]; > 100 µM in [2]; 25.5 µM in [3]; 35.7 µM in [4]; 16.3 µM in [5]; 21.5 µM in [6]. Further, the concentration for total growth inhibition (TGI) was 32.5 µM in [7]; 27.7 µM in assay [8]; 27.1 µM in assay [9]; 39.1 µM in assay [13]; > 100 µM in assay [10]; 47.9 µM in assay [11]. Further, in [14], the concentration for total growth inhibition (TGI) amounted to 86.6 µM.
In the case of `O=c1c2c(oc3ccccc13)-c1ccccc1OC2`, the TGI in [2], in assay [3], in assay [5], in [6], in [7] and in assay [9] was > 100 µM each time. Further, the TGI in [13], in [11], in assay [12] and in assay [14] was > 100 µM throughout.
`Cc1cc2ccccc2n2c1nc1ccccc12`: the concentration for total growth inhibition (TGI) in [1], in assay [2], in [3], in assay [4], in [5] and in assay [6] was > 100 µM in each case. Moreover, the TGI in assay [7], in [8], in [9], in [10], in assay [11] and in assay [12] was > 100 µM each time. In assay [14], the TGI was > 100 µM.
Take `CC(C)OC(=O)c1ccc(NCc2cc(O)ccc2O)cc1Cl`: the concentration for total growth inhibition (TGI) in assay [1] was 9.08 µM; in assay [2], 26.4 µM; in [3], 3.95 µM; in assay [4] it was 18 µM; in assay [5], > 93 µM; in [6], > 38.1 µM. Moreover, the TGI in assay [7] is 28.6 µM; in [8] it was 23.7 µM; in [9] it was 12.5 µM; in assay [13], > 55 µM; in [10], 38.6 µM; in assay [11] it was 11.1 µM. The TGI in [14] is 37.1 µM.
For `O=C(Nc1ccc(Cl)cc1)NS(=O)(=O)c1coc2cc(F)ccc2c1=O`, the TGI in [1], in assay [3], in assay [5], in assay [6], in [7] and in assay [8] was > 100 µM in each case. The concentration for total growth inhibition (TGI) in assay [9], in [13], in assay [10], in assay [11], in assay [12] and in assay [14] was > 100 µM in each case.
Take `COC(=O)/C=C(/C)n1nc2ccccc2n1`: the TGI in [1], in assay [2], in assay [3], in assay [5], in [6] and in assay [7] was > 100 µM in each case. In addition, the concentration for total growth inhibition (TGI) in assay [8], in assay [9], in assay [13], in [10], in assay [11] and in [12] was > 100 µM throughout. Besides, the TGI in assay [14] was > 100 µM.
Take `O=C(CC(=O)N(C(=O)/C=C\c1ccccc1)c1ccc(Cl)cc1)N1N=C(c2ccccc2)C(N=Nc2cccc([N+](=O)[O-])c2)C1=O` (centres undefined): the total growth inhibition concentration (TGI) in assay [1] is 14.7 µM; in assay [2], 91.8 µM; in [3], 21.6 µM; in assay [4], > 100 µM; in assay [5] it was 15.2 µM; in [6], 38.7 µM. Besides, the TGI in assay [7] is 40.2 µM; in [8], 29.5 µM; in assay [9], 14.4 µM; in assay [10], 98.1 µM; in assay [12] it was > 100 µM.

For the origin of these results see PubChem BioAssay (NCI).
